Results: ChEMBL document CHEMBL1126534, “Role of sulfonamide moiety in non-prostanoid txa2 receptor antagonist kt2-962 : modifications of this moiety and the resulting activities” (Bioorg Med Chem Lett, 1993)

How the values were obtained:
Thromboxane A2 receptor [1] = target: T1, Thromboxane A2 receptor (Rattus norvegicus, UniProt P34978); test: Tested for antagonistic activity on isolated rat thoracic aorta (thromboxane A2 receptor) precontracted by U-46619 (3 x 10 e-8 M); format: functional, tissue-based
T1 sequence (P34978 whole entry): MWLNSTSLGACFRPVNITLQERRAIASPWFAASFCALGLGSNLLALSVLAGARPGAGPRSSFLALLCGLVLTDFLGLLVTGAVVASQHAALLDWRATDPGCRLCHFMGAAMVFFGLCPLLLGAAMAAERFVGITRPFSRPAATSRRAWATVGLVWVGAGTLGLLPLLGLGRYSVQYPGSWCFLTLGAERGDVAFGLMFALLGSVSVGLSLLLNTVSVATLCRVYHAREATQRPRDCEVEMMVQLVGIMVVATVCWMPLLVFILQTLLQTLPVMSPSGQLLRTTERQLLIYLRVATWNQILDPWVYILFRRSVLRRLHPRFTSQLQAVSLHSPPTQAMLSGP

Oryctolagus cuniculus = species on record: Oryctolagus cuniculus; test: Tested for 50% maximal aggregation of rabbit platelet-rich plasma induced by 4 x 10 e-6 M U-46619; format: functional
Thromboxane A2 receptor [2] = target: T1, Thromboxane A2 receptor; test: Tested for antagonistic activity on isolated rat thoracic aorta (TXA2 receptor) precontracted by U-46619 (3 x 10 e-8 M); format: functional, tissue-based

Structure (SMILES)	IC50 (Thromboxane A2 receptor [1])	IC50 (Oryctolagus cuniculus)	IC50 (Thromboxane A2 receptor [2])
CC(C)c1ccc2c(CCCCCS(=O)(=O)Nc3ccccc3)cc(C(=O)O)c-2cc1	1.5 µM	–	–
CC(C)c1ccc2c(CCCS(=O)(=O)Nc3ccc(Cl)cc3)cc(S(=O)(=O)O)c-2cc1	0.86 µM	–	–
O=C(O)COc1ccc(CCNS(=O)(=O)c2ccccc2)cc1 [SULOTROBAN]	1.5 µM	–	–
CC(C)c1ccc2c(CCC/C=N/N=C(\S)Nc3ccccc3)cc(C(=O)O)c-2cc1	590 µM	> 1 mM	–
CC(C)c1ccc2c(CCCS(=O)(=O)Nc3ccccc3)cc(S(=O)(=O)O)c-2cc1	8.7 µM	–	–
CC(C)c1ccc2c(CCCCS(=O)(=O)Nc3ccc(Cl)cc3)cc(S(=O)(=O)O)c-2cc1	0.22 µM	> 1 mM	–
CC(C)c1ccc2c(CCCCCS(=O)(=O)Nc3ccc(Cl)cc3)cc(S(=O)(=O)O)c-2cc1	0.86 µM	–	–
CC(C)c1ccc2c(CCCCNS(=O)(=O)c3ccc(Cl)cc3)cc(S(=O)(=O)O)c-2cc1	0.0009 µM	–	–
CC(C)c1ccc2c(CCCC(=O)NS(=O)(=O)c3ccccc3)cc(S(=O)(=O)O)c-2cc1	65 µM	–	–
CC(C)c1ccc2c(CCCCS(=O)(=O)Nc3ccccc3)cc(S(=O)(=O)O)c-2cc1	1.5 µM	–	–
CC(C)c1ccc2c(CCCCCS(=O)(=O)Nc3ccccc3)cc(S(=O)(=O)O)c-2cc1	1.4 µM	–	–
CC(C)c1ccc2c(CCCCS(=O)(=O)Nc3ccccc3)cc(C(=O)O)c-2cc1	8.7 µM	–	–

Now from value to compound:

IC50 (Thromboxane A2 receptor [1])	IC50 (Oryctolagus cuniculus)	IC50 (Thromboxane A2 receptor [2])	Structure (SMILES)
19 µM	> 1 mM	–	CC(C)c1ccc2c(CCCC(=O)NS(=O)(=O)c3ccc(Cl)cc3)cc(C(=O)O)c-2cc1
2.6 µM	> 1 mM	–	CC(C)c1ccc2c(CCCCS(=O)(=O)Nc3ccc(Cl)cc3)cc(C(=O)O)c-2cc1
> 100 µM	> 1 mM	–	CC(C)c1ccc2c(CCC/C=N\NC(=O)Nc3ccccc3)cc(C(=O)O)c-2cc1
> 100 µM	–	–	CC(C)c1ccc2c(CCC/C=N/N=C(\S)Nc3ccc(Cl)cc3)cc(C(=O)O)c-2cc1
> 100 µM	> 1 mM	–	CC(C)c1ccc2c(CNC(=O)CNS(=O)(=O)c3ccccc3)cc(C(=O)O)c-2cc1
–	> 1 mM	> 100 µM	CC(C)c1ccc2c(CNC(=O)CNC(=O)c3ccccc3)cc(C(=O)O)c-2cc1
> 100 µM	–	–	CC(C)c1ccc2c(CNC(=O)CNC(=O)c3ccc(Cl)cc3)cc(C(=O)O)c-2cc1
> 100 µM	–	–	CC(C)c1ccc2c(CNC(=O)CNS(=O)(=O)c3ccc(Cl)cc3)cc(C(=O)O)c-2cc1
1.7 µM	–	–	CC(C)c1ccc2c(CCCCCS(=O)(=O)Nc3ccc(Cl)cc3)cc(C(=O)O)c-2cc1
> 100 µM	–	–	CC(C)c1ccc2c(CCCC(=O)NS(=O)(=O)c3ccccc3)cc(C(=O)O)c-2cc1
> 100 µM	–	–	CC(C)c1ccc2c(CCC/C=N/NC(=O)Nc3ccc(Cl)cc3)cc(C(=O)O)c-2cc1
9.1 µM	–	–	CC(C)c1ccc2c(CCCS(=O)(=O)Nc3ccc(Cl)cc3)cc(C(=O)O)c-2cc1
12 µM	–	–	CC(C)c1ccc2c(CCCS(=O)(=O)Nc3ccccc3)cc(C(=O)O)c-2cc1
54 µM	0.056 mM	–	CC(C)c1ccc2c(CCCC(=O)NS(=O)(=O)c3ccc(Cl)cc3)cc(S(=O)(=O)O)c-2cc1
